The target in test [1] is T1, human CB1 receptor (Homo sapiens, UniProt P21554).
T1 construct: purchased Perkin-Elmer
The test can be described thus: hCB1 receptor binding (3H-CP55,940 displacement). How it is done:
hCB1 and hCB2 Receptor Binding
Membranes are produced from either HEK 293S cells expressing the cloned human CB1 receptor (hCB1: clone #24) or Sf9 cells, using the baculovirus system, expressing the cloned human CB2 receptor (hCB2). The membranes are thawed at 37° C., passed 3 times through a 23-gauge blunt-end needle, diluted in the cannabinoid binding buffer (50 mM Tris, 2.5 mM EDTA, 5 mM MgCl2, and 0.5 mg/mL BSA fatty acid free, pH 7.4) and aliquots containing the appropriate amount of protein are distributed in 96-well plates. The IC50 of the compounds of the present invention at hCB1 and hCB2 are evaluated from 10-point dose-response curves done with ^3H-CP55,940 at 20000 to 25000 dpm per well (0.17-0.21 nM) in a final volume of 300 μl. The total and non-specific binding are determined in the absence and presence of 0.2 μM of HU210 respectively. The plates are vortexed and incubated for 60 minutes at room temperature, filtered through Unifilters GF/B (pre-soaked in 0.1% polyethyleneimine) with the Packard harvester using 3 mL of wash buffer (50 mM Tris, 5 mM MgCl2, 0.5 mg BSA pH 7.0). The filters are dried for 1 hour at 55° C. The radioactivity (cpm) is counted in a TopCount (Packard) after adding 65 μl/well of MS-20 scintillation liquid.
Based on the above assays, the dissociation constant (Ki) for a particular compound of the present invention towards a particular receptor is determined using the following equation: […]
wherein IC50 is the concentration of the compound of the present invention at which 50% displacement has been observed; [rad] is a standard or reference radioactive ligand concentration at that moment; Kd is the dissociation constant of the radioactive ligand towards the particular receptor.

In test [2] the target is T1, human CB1 receptor. Kind of test: hCB1 GTPγS binding. In kind it is biochemical. The following applies: for Emax: read-out: Emax hCB1. How it is done:
Cloned human CB1 receptor from Perkin-Elmer (hCB1) are thawed at 37° C., passed 3 times through a 23-gauge blunt-end needle and diluted in the GTPγS binding buffer (50 mM Hepes, 20 mM NaOH, 100 mM NaCl, 1 mM EDTA, 5 mM MgCl2, pH 7.4, 0.1% BSA). […] The basal and maximal stimulated binding is determined in absence and presence of 10 μM Win 55,212-2. The membranes are pre-incubated for 5 minutes with 112.5 μM GDP prior to distribution in plates (30 μM GDP final). The plates are vortexed and incubated for 60 minutes at room temperature, filtered on Unifilters GF/B (pre-soaked in water) with the Packard harvester using 3 ml of wash buffer (50 mM Tris, 5 mM MgCl2, 50 mM NaCl, pH 7.0). The filters are dried for 1 hour at 55° C. The radioactivity (cpm) is counted in a TopCount (Packard) after adding 65 μl/well of MS-20 scintillation liquid.
Background: GTPγS resists hydrolysis and so accumulates on activated G proteins.

Structures are written as SMILES. Read-outs that look alike come from different tables or passages of the source.

Results on ten molecules are retold here after patent US20090181968A1, “Novel 3-Bicyclocarbonylaminopyridine-2-Carboxamides or 3-Bicyclocarbonylaminopyrazine-2-Carboxamides” (priority 2005, published 2009).

As usually defined, the Ki is a dissociation constant, usually derived from enzyme kinetics or from competition with a known ligand. The EC50 is the concentration that produces a half-maximal response. As a reminder, the Emax is the size of the effect at its maximum, as opposed to the concentration needed.

T1 sequence (P21554 whole entry): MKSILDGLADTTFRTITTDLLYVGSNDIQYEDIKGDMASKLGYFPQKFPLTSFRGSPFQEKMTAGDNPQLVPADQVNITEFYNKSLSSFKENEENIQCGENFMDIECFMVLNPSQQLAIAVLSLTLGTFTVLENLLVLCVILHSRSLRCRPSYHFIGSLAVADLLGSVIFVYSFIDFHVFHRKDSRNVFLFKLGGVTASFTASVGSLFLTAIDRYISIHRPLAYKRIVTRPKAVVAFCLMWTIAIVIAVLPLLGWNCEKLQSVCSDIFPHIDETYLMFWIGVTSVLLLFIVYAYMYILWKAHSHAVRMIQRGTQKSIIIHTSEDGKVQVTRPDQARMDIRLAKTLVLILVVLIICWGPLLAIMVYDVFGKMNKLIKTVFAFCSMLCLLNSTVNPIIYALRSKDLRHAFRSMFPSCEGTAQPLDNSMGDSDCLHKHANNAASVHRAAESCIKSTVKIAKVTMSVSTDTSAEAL

As to `O=C(NCC1CCC1)c1ncccc1NC(=O)c1ccc(Cn2cc(F)nn2)c2ccccc12` [Example 50, N-(Cyclobutylmethyl)-3-({4-[(4-fluoro-1H-1,2,3-triazol-1-yl)methyl]-1-naphthoyl}amino)pyridine-2-carboxamide], affinity at human CB1 receptor [1] was put at a Ki of 51 nM. Moreover, at human CB1 receptor [2], the EC50 was 46 nM and the Emax is 48%.
With `O=C(NCC1CCC1)c1nc(OCc2ccccn2)ccc1NC(=O)c1ccc(Cn2ccnn2)c2ccccc12` [Example 14, N-(cyclobutylmethyl)-6-(pyridin-2-ylmethoxy)-3-{[4-(1H-1,2,3-triazol-1-ylmethyl)-1-naphthoyl]amino}pyridine-2-carboxamide], the Ki on human CB1 receptor [1] is 3.2 nM. At human CB1 receptor [2], a half-maximal response (EC50) required 7.3 nM and the maximal effect (Emax) was 110%.
`CN(C)C(=O)COc1ccc(NC(=O)c2ccc(Cn3ccnn3)c3ccccc23)c(C(=O)NCC2CCC2)n1` [Example 6, N-(cyclobutylmethyl)-6-[2-(dimethylamino)-2-oxoethoxy]-3-{[4-(1H-1,2,3-triazol-1-ylmethyl)-1-naphthoyl]amino}pyridine-2-carboxamide]: on human CB1 receptor [1], the Ki was found to be 52 nM. For the same molecule, on human CB1 receptor [2], the EC50 was found to be 80 nM and the Emax is 88%.
For the molecule `COCc1ccc(C(=O)Nc2ccc(OCCO)nc2C(=O)NCC2CCOCC2)c2ccccc12` [Example 35, 6-(2-Hydroxy-ethoxy)-3-[(4-methoxymethyl-naphthalene-1-carbonyl)-amino]-pyridine-2-carboxylic Acid (tetrahydro-pyran-4-ylmethyl)-amide], the Ki at human CB1 receptor [1] stood at 53 nM. For the same molecule, at human CB1 receptor [2], the response was half-maximal at 99 nM (EC50) and the maximum response (Emax) came to 93%.
Turning to `O=C(NCC1CCOCC1)c1ncccc1NC(=O)c1csc2ccccc12` [Example 56, 3-[(1-benzothien-3-yl-carbonyl)amino]-N-(tetrahydro-2H-pyran-4-ylmethyl)pyridine-2-carboxamide], the Ki on human CB1 receptor [1] (membranes of HEK 293S cells expressing cloned human CB1 receptor, Ki=IC50/(1+[rad]/Kd), read-out: Ki hCB1) is 260 nM. In addition, on human CB1 receptor [2] (GTPγ35S binding, cloned human CB1 receptor membranes, read-out: EC50 hCB1), the EC50 was determined as 380 nM. Besides, the Emax on human CB1 receptor [2] was determined as 88%.
Turning to `O=C(NCC1CCOCC1)c1nc(OS(=O)(=O)CCC(F)(F)F)cnc1NC(=O)c1ccc(Cn2ccnn2)c2ccccc12` [Example 44, 6-[(Tetrahydro-2H-pyran-4-ylmethyl)carbamoyl]-5-{[4-(1H-1,2,3-triazol-1-ylmethyl)-1-naphthoyl]amino}pyrazin-2-yl 3,3,3-trifluoropropane-1-sulfonate], the Ki at human CB1 receptor [1] was 270 nM. In addition, at human CB1 receptor [2], the EC50 was determined as 240 nM and the Emax worked out at 140%.
As to `O=C(COc1ccc(NC(=O)c2ccc(Cn3ccnn3)c3ccccc23)c(C(=O)NCC2CCC2)n1)NCc1ccccc1` [Example 27, 6-(Benzylcarbamoyl-methoxy)-3-[(4-[1,2,3]triazol-1-ylmethyl-naphthalene-1-carbonyl)-amino]-pyridine-2-carboxylic Acid Cyclobutylmethyl-amide], the Ki on human CB1 receptor [1] was 35 nM. Further, on human CB1 receptor [2], the EC50 came to 42 nM and the Emax came to 94%.
Regarding `CC(C)OC(=O)COc1ccc(NC(=O)c2ccc(Cn3ccnn3)c3ccccc23)c(C(=O)NCC2CCC2)n1` [Example 29, {6-(Cyclobutylmethyl-carbamoyl)-5-[(4-[1,2,3]triazol-1-ylmethyl-naphthalene-1-carbonyl)-amino]-pyridin-2-yloxy}-acetic Acid Isopropyl Ester], the affinity on human CB1 receptor [1], expressed as Ki, was 5.4 nM. Moreover, on human CB1 receptor [2], the midpoint of the response, the EC50, lay at 7.1 nM and the maximal effect (Emax) was found to be 80%.
As for `COCc1cnnn1Cc1ccc(C(=O)Nc2cccnc2C(=O)NCC2CCC2)c2ccccc12` [Example 15, N-(cyclobutylmethyl)-3-[(4-{[5-(methoxymethyl)-1H-1,2,3-triazol-1-yl]methyl}-1-naphthoyl)amino]pyridine-2-carboxamide], at human CB1 receptor [1], affinity was put at a Ki of 13 nM. At human CB1 receptor [2], the half-maximal effective concentration (EC50) turned out to be 22 nM and the Emax amounted to 120%.
For `O=C(COc1ccc(NC(=O)c2ccc(Cn3ccnn3)c3ccccc23)c(C(=O)NCC2CCC2)n1)NCCO` [Example 7, N-(cyclobutylmethyl)-6-{2-[(2-hydroxyethyl)amino]-2-oxoethoxy}-3-{[4-(1H-1,2,3-triazol-1-ylmethyl)-1-naphthoyl]amino}pyridine-2-carboxamide] the same measures were 59 nM, 120 nM and 110%.
